In the CheMixHub viscosity set:
± gives the uncertainty stated by the source.

Test: xn = mol fraction of the nth substance listed
Settings: 101 kPa

CC1=CCC(=C(C)C)CC1 + Clc1ccccc1
viscosity [mPa·s]
Settings	x1 = 0.0668	x1 = 0.1386	x1 = 0.2162	x1 = 0.3003	x1 = 0.3917	x1 = 0.4913	x1 = 0.6004	x1 = 0.7203	x1 = 0.8528
303.15 K	0.729 ± 0.015	0.761 ± 0.017	0.798 ± 0.019	0.836 ± 0.022	0.874 ± 0.025	0.908 ± 0.029	0.934 ± 0.034	0.955 ± 0.04	0.974 ± 0.046
308.15 K	0.692 ± 0.015	0.722 ± 0.016	0.756 ± 0.018	0.791 ± 0.02	0.826 ± 0.024	0.858 ± 0.028	0.881 ± 0.032	0.897 ± 0.037	0.913 ± 0.043
313.15 K	0.649 ± 0.014	0.677 ± 0.015	0.709 ± 0.017	0.743 ± 0.019	0.775 ± 0.022	0.804 ± 0.026	0.825 ± 0.03	0.839 ± 0.035	0.853 ± 0.041

CC(F)(F)F + FC(F)C(F)(F)F
viscosity [mPa·s]
Settings	x1 = 0.248	x1 = 0.5	x1 = 0.759
298.15 K	0.1286 ± 0.0029	0.1205 ± 0.0028	0.117 ± 0.0027
313.15 K	0.1036 ± 0.0024	–	–

CC(F)(F)F + FCC(F)(F)F
viscosity [mPa·s]
Settings	x2 = 0.247	x2 = 0.5	x2 = 0.743
298.15 K	0.126 ± 0.0029	0.1447 ± 0.0032	0.1691 ± 0.0037
313.15 K	0.105 ± 0.0024	0.1187 ± 0.0027	0.1358 ± 0.0031

CC1=CCC(=C(C)C)CC1 + Fc1ccccc1
viscosity [mPa·s]
Settings	x1 = 0.062	x1 = 0.1294	x1 = 0.2031	x1 = 0.2839	x1 = 0.3729	x1 = 0.4714	x1 = 0.5811	x1 = 0.704	x1 = 0.8425
303.15 K	0.563 ± 0.012	0.61 ± 0.013	0.661 ± 0.015	0.715 ± 0.018	0.771 ± 0.022	0.824 ± 0.026	0.87 ± 0.031	0.912 ± 0.037	0.951 ± 0.045
308.15 K	0.53 ± 0.011	0.572 ± 0.013	0.621 ± 0.015	0.672 ± 0.017	0.725 ± 0.02	0.774 ± 0.025	0.818 ± 0.029	0.855 ± 0.035	0.889 ± 0.042
313.15 K	0.498 ± 0.011	0.536 ± 0.012	0.582 ± 0.014	0.631 ± 0.016	0.681 ± 0.019	0.727 ± 0.023	0.767 ± 0.028	0.8 ± 0.033	0.831 ± 0.039

CCCCn1cc[n+](C)c1.F[P-](F)(F)(F)(F)F + NCCO
viscosity [mPa·s]
Settings	x2 = 0.1185	x2 = 0.2113	x2 = 0.3052	x2 = 0.4282	x2 = 0.4918	x2 = 0.6161	x2 = 0.6984	x2 = 0.8022	x2 = 0.9028
293.15 K	–	124.5 ± 50	102.5 ± 41	78.15 ± 31	68.3 ± 27	51.7 ± 21	43.55 ± 17	34.1 ± 14	27.33 ± 11
298.15 K	–	92.28 ± 37	76.44 ± 31	58.74 ± 24	51.63 ± 21	39.18 ± 16	33.39 ± 13	26.29 ± 11	–
303.15 K	–	–	57.84 ± 23	44.92 ± 18	39.41 ± 16	30.4 ± 12	25.89 ± 10	–	–
308.15 K	67.48 ± 27	54.83 ± 22	44.08 ± 18	34.54 ± 14	30.31 ± 12	–	–	–	–
313.15 K	–	42.41 ± 17	34.89 ± 14	27.36 ± 11	–	–	–	–	–
318.15 K	42.44 ± 17	33.84 ± 14	28.14 ± 11	–	–	–	–	–	9.08 ± 3.6
323.15 K	34.88 ± 14	28.08 ± 11	–	–	–	–	–	9.09 ± 3.6	7.67 ± 3.1
